Data as given in the RepoRT retention time repository.

Assay: RP, Waters CORTECS UPLC C18, 100 × 2.1 mm, 1.6 µm, 40 °C, 0.4 mL/min, estimated dead time 0.55 min; A: water + 0.1% formic acid, pH 3; B: acetonitrile + 0.1% formic acid, pH 3; gradient (min/%B) 0/5 1.12/5 6.41/99.5 10.01/99.5
Conditions: stereoisomer not certain
Work on `CC1(C)CON(Cc2ccccc2Cl)C1=O` [Clomazone] yielded an LC retention time of 4.64 min.
For `COP(=O)(OC)SCn1c(=O)oc2cc(Cl)cnc21` [Azamethiphos], the LC retention time was 3.91 min.
With `Cn1c(=O)c2[nH]cnc2n(C)c1=O` [THEOPHYLLINE] the LC retention time was 2.15 min.
Work on `Cc1ccc(-c2c(Cl)nc(C#N)n2S(=O)(=O)N(C)C)cc1` [Cyazofamid] yielded an LC retention time of 5.39 min.
`CC(C)(C)C(O)C(Cc1ccc(Cl)cc1)n1cncn1` (centres undefined) [Paclobutrazol] showed an LC retention time of 4.7 min.
With `COc1cc(C)c(C(=O)c2c(OC)ccc(Br)c2C)c(OC)c1OC` [Metrafenone] the LC retention time was 4.52 min.
With `CC(C)(C)C(O)C(=Cc1ccc(Cl)cc1Cl)n1cncn1` (centres undefined) [Diniconazole] the LC retention time was 5.27 min.
Compound `COCC(=O)N(c1c(C)cccc1C)C(C)C(=O)OC` (centres undefined) [Metalaxyl] has an LC retention time of 4.33 min.
For `COCCN(C(=O)CCl)c1c(C)cccc1C` [Dimethachlor], the LC retention time was 4.55 min.
`Nc1c(O)cccc1C(=O)O` [3-HYDROXYANTHRANILATE] gave an LC retention time of 0.722 min.
In the case of `CCCC[n+]1cccc(S(=O)(=O)[O-])c1` [C4-APS], the LC retention time is reported as 1.11 min.
`CON=C1CC2(CC3CC(CC=C(C)CC(C)C=CC=C4COC5C(O)C(C)=CC(C(=O)O3)C45O)O2)OC(C(C)=CC(C)C)C1C` (centres undefined) [Moxidectin] showed an LC retention time of 6.81 min.
`O=C(O)Cc1c[nH]c2ccc(O)cc12` [5-HYDROXYINDOLEACETATE] gave an LC retention time of 2.47 min.
`CCON=C(CC)C1=C(O)CC(c2c(C)cc(C)cc2C)CC1=O` (centres undefined) [Tralkoxidym] showed an LC retention time of 6.22 min.
With `CC1C(c2ccc(Cl)cc2)SC(=O)N1C(=O)NC1CCCCC1` (centres undefined) [Hexythiazox] the LC retention time was 6.21 min.
With `CC(=O)OCC(=O)C1CCC2C3CCC4=CC(=O)CCC4(C)C3CCC12C` (centres undefined) [DEOXYCORTICOSTERONE ACETATE] the LC retention time was 5.2 min.
For `CCCCCCCCCCCCCCCCCCC[n+]1cccc(S(=O)(=O)[O-])c1` [C19-APS], the LC retention time was 6.81 min.
For `NCC(O)c1ccccc1` (centres undefined) [PHENYLETHANOLAMINE], the LC retention time was 0.755 min.
In the case of `COC(=O)c1sccc1S(=O)(=O)NC(=O)Nc1nc(C)nc(OC)n1` [Thifensulfurson methyl], the LC retention time is reported as 3.9 min.
Compound `CNC(=O)ON=C(CSC)C(C)(C)C` [Thiofanox] has an LC retention time of 4.76 min.
`Cc1cc2nc3[nH]c(=O)[nH]c(=O)c3nc2cc1C` [LUMICHROME] showed an LC retention time of 3.26 min.
For `COc1cc(OC)nc(NC(=O)NS(=O)(=O)N(C)S(C)(=O)=O)n1` [Amidosulfuron], the LC retention time was 4.16 min.
With `COC(=O)C(C)N(C(=O)Cc1ccccc1)c1c(C)cccc1C` (centres undefined) [Benalaxyl] the LC retention time was 5.46 min.
`NC(=O)Cc1c[nH]c2ccccc12` [INDOLE-3-ACETAMIDE] gave an LC retention time of 2.89 min.
`CCCCCCCCCCCCCCCC[n+]1cccc(S(=O)(=O)[O-])c1` [C16-APS] gave an LC retention time of 6.07 min.
Work on `CC(=O)OCC(=O)C1(O)CCC2C3CCC4=CC(=O)CCC4(C)C3C(O)CC21C` (centres undefined) [CORTISOL 21-ACETATE] yielded an LC retention time of 4.25 min.
With `CC(C)(C)C(O)C(Oc1ccc(Cl)cc1)n1cncn1` (centres undefined) [Triadimenol] the LC retention time was 4.74 min.
`CCOC(=O)C(SP(=S)(OC)OC)c1ccccc1` (centres undefined) [Phenthoate] gave an LC retention time of 5.54 min.
With `CSc1nnc(C(C)(C)C)c(=O)n1N` [Metribuzin] the LC retention time was 3.98 min.
`CCCCN(CCCC)SN(C)C(=O)Oc1cccc2c1OC(C)(C)C2` [Carbosulfan] showed an LC retention time of 6.87 min.
Work on `O=C(NC(=O)c1c(F)cccc1F)Nc1cc(Cl)c(F)c(Cl)c1F` [Teflubenzuron] yielded an LC retention time of 5.7 min.
For `N#CCNC(=O)c1cnccc1C(F)(F)F` [Flonicamid], the LC retention time was 2.88 min.
`CC1=C(C(=O)Nc2ccccc2)SCCO1` [Carboxin] showed an LC retention time of 4.3 min.
`CC1(C)CN=C(NN=C(C=Cc2ccc(C(F)(F)F)cc2)C=Cc2ccc(C(F)(F)F)cc2)NC1` [Hydramethylnon (Amdro)] gave an LC retention time of 5.14 min.
`Cc1ccc(NC(=O)N(C)C)cc1Cl` [Chlorotoluron] gave an LC retention time of 4.15 min.
With `Cc1cc(C(F)(C(F)(F)F)C(F)(F)F)ccc1NC(=O)c1cccc(I)c1C(=O)NC(C)(C)CS(C)(=O)=O` [Flubendiamide] the LC retention time was 5.35 min.
For `CCOP(=O)(SC(C)CC)N1CCSC1=O` (centres undefined) [Fosthiazate], the LC retention time was 4.22 min.
`O=CCc1c[nH]c2ccccc12` [INDOLEACETALDEHYDE] showed an LC retention time of 2.55 min.
Compound `O=C(O)CCCCCCCC(O)C(O)CCCCCCO` (centres undefined) [Aleuritic acid] has an LC retention time of 3.52 min.
With `CCOC(=O)NCCOc1ccc(Oc2ccccc2)cc1` [Fenoxycarb] the LC retention time was 5.19 min.
With `CNC(=O)CSP(=O)(OC)OC` [Omethoate] the LC retention time was 1.75 min.
With `Nc1cnn(-c2ccccc2)c(=O)c1Cl` [Chloridazon] the LC retention time was 3.17 min.
For `Nc1nc2ncc(CNc3ccc(C(=O)NC(CCC(=O)O)C(=O)O)cc3)nc2c(=O)[nH]1` (centres undefined) [FOLATE], the LC retention time was 2.38 min.
`O=C(O)CCc1ccccc1O` [3-(2-HYDROXYPHENYL)PROPANOATE] showed an LC retention time of 5.17 min.
`CCCCc1c(C)nc(NCC)nc1OS(=O)(=O)N(C)C` [Bupirimate] gave an LC retention time of 3.29 min.
`N#CC(CCc1ccc(Cl)cc1)(Cn1cncn1)c1ccccc1` (centres undefined) [Fenbucanozole] gave an LC retention time of 5.11 min.
In the case of `CCc1nn(C)c(C(=O)NCc2ccc(C(C)(C)C)cc2)c1Cl` [Tebufanpyrad], the LC retention time is reported as 5.93 min.
In the case of `CC=C(C)C(=O)NCC(=O)O` [Tiglyl Glycine], the LC retention time is reported as 2.22 min.
`COc1nc(C)nc(NC(=O)NS(=O)(=O)c2ccccc2Cl)n1` [Chlorsulfurson] showed an LC retention time of 4.12 min.
For `CCCCCCCCCCCC(=O)OC(CC(=O)[O-])C[N+](C)(C)C` [Lauroyl-L-carnitine], the LC retention time was 4.7 min.
Compound `OC(Cn1cncn1)(c1ccc(F)cc1)c1ccccc1F` (centres undefined) [Flutriafol] has an LC retention time of 4.2 min.
For `COP(N)(=O)SC` (centres undefined) [Methamidophos], the LC retention time was 0.974 min.
`CCOP(=S)(OCC)SCSP(=S)(OCC)OCC` [Ethion] showed an LC retention time of 6.19 min.
For `CNC(=O)N(C)c1nnc(C(C)(C)C)s1` [Tebuthiuron], the LC retention time was 3.68 min.
Compound `CC(=NC#N)N(C)Cc1ccc(Cl)nc1` [Acetamiprid] has an LC retention time of 3.33 min.
Work on `CC(Cc1ccc(C(C)(C)C)cc1)CN1CCCCC1` (centres undefined) [Fenpropidine] yielded an LC retention time of 4.27 min.
Work on `CCCCCCCCCCCCCCCCCC[n+]1cccc(S(=O)(=O)[O-])c1` [C18-APS] yielded an LC retention time of 6.58 min.
`COc1nc(NC(C)C)nc(NC(C)C)n1` [Prometon] showed an LC retention time of 3.54 min.
With `CCOC1Oc2ccc(OS(C)(=O)=O)cc2C1(C)C` (centres undefined) [Ethofumesate] the LC retention time was 5.04 min.
Compound `CCOc1ccc(NC(=O)OC(C)C)cc1OCC` [Diethofencarb] has an LC retention time of 4.83 min.
Work on `CCN(CC)C(=O)C(Cl)=C(C)OP(=O)(OC)OC` (mixture of isomers) [Phospamidon (Mix of isomers)] yielded an LC retention time of 3.69 min.
Compound `O=C(NC(=O)c1c(F)cccc1F)Nc1ccc(Oc2ccc(C(F)(F)F)cc2Cl)cc1F` [Flufenoxuron] has an LC retention time of 6.08 min.
`Clc1ccccc1-c1nnc(-c2ccccc2Cl)nn1` [Clofentezine] showed an LC retention time of 5.65 min.
Compound `Cc1c(C)c2c(c(C)c1O)CCC(C)(CCCC(C)CCCC(C)CCCC(C)C)O2` (stereo not drawn) [ALPHA-TOCOPHEROL] has an LC retention time of 5.92 min.
Compound `CCCCCCCCSC(=O)Oc1cc(Cl)nnc1-c1ccccc1` [Pyridat] has an LC retention time of 6.78 min.
`C#CC(C)(C)NC(=O)c1cc(Cl)cc(Cl)c1` [Propyzamide] showed an LC retention time of 5.01 min.
In the case of `CCCCc1c(C)nc(NCC)[nH]c1=O` [Ethirimol], the LC retention time is reported as 3.01 min.
`CCNc1nc(NC(C)CC)nc(OC)n1` (centres undefined) [Secbumeton] gave an LC retention time of 3.53 min.
In the case of `CCOC(=O)OC1=C(c2cc(C)ccc2C)C(=O)NC12CCC(OC)CC2` (centres undefined) [Spirotetramat], the LC retention time is reported as 4.8 min.
With `CCCCCC[n+]1cccc(S(=O)(=O)[O-])c1` [C6-APS] the LC retention time was 2.9 min.
Compound `CON=C(C1=NOCCO1)c1ccccc1Oc1ncnc(Oc2ccccc2Cl)c1F` [Fluoxastrobin] has an LC retention time of 5.22 min.
`COc1ccc2[nH]cc(CCNC(C)=O)c2c1` [MELATONIN] showed an LC retention time of 3.31 min.
For `CC1CCC2(OC1)OC1CC3C4CC=C5CC(O)CCC5(C)C4CCC3(C)C1C2C` (centres undefined) [Diosgenin], the LC retention time was 7.3 min.
`O=C(Nc1ccccc1)Nc1cnns1` [Thidiazuron] showed an LC retention time of 3.74 min.
In the case of `CCS(=O)(=O)c1nnc(N(C)C(=O)NC)s1` [Sulfadiazole], the LC retention time is reported as 3.13 min.
Work on `CC12CC1(C)C(=O)N(c1cc(Cl)cc(Cl)c1)C2=O` (centres undefined) [Procymidone] yielded an LC retention time of 5.21 min.
Compound `O=C(O)CCc1c[nH]c2ccccc12` [Indole-3-propionic acid] has an LC retention time of 3.7 min.
In the case of `CCC(CC)Nc1c([N+](=O)[O-])cc(C)c(C)c1[N+](=O)[O-]` [Pendimethalin (Penoxalin)], the LC retention time is reported as 5.42 min.
Compound `O=C(O)C=Cc1c[nH]c2ccccc12` [3-Indoleacrylic acid] has an LC retention time of 3.58 min.
Compound `CC(=O)NC(Cc1c[nH]c2ccccc12)C(=O)O` (centres undefined) [N-ACETYLTRYPTOPHAN] has an LC retention time of 3.14 min.
Work on `CC12CCC(O)CC1CCC1C2CC(O)C2(C)C(C3=CC(=O)OC3)CCC12O` (centres undefined) [Digoxigenin] yielded an LC retention time of 2.45 min.
`Cc1cc(C2CC2)nc(Nc2ccccc2)n1` [Cyprodinil] showed an LC retention time of 4.68 min.
With `CC=C(C)C(=O)OC(CC(=O)[O-])C[N+](C)(C)C` [Tigloyl-L-carnitine] the LC retention time was 2.43 min.
For `CCCCCCCCCC(=O)OC(CC(=O)[O-])C[N+](C)(C)C` [Decanoyl-L-carnitine], the LC retention time was 4.21 min.
`COP(=S)(OC)Oc1nc(Cl)c(Cl)cc1Cl` [Chlorpyriphos-methyl] showed an LC retention time of 5.73 min.
For `NCCc1c[nH]c2ccccc12` [TRYPTAMINE], the LC retention time was 2.43 min.
`CC(CC(=O)[O-])CC(=O)OC(CC(=O)O)C[N+](C)(C)C` (centres undefined) [3-Methylglutarylcarnitine] showed an LC retention time of 2.25 min.
`CCCN(CCOc1c(Cl)cc(Cl)cc1Cl)C(=O)n1ccnc1` [Prochloraz] showed an LC retention time of 4.73 min.
`Clc1ccc(C2(Cn3cncn3)OCCO2)c(Cl)c1` [Azaconazole] showed an LC retention time of 4.32 min.
